In ChEMBL document CHEMBL1128189, “alpha-Hydroxy phosphinyl-based inhibitors of human renin” (J Med Chem, 1995) one finds IC50 data, which are given here for 16 molecules.

Assay [1] concerns the target T1, Renin (Homo sapiens, UniProt P00797).
T1 sequence (P00797 whole entry): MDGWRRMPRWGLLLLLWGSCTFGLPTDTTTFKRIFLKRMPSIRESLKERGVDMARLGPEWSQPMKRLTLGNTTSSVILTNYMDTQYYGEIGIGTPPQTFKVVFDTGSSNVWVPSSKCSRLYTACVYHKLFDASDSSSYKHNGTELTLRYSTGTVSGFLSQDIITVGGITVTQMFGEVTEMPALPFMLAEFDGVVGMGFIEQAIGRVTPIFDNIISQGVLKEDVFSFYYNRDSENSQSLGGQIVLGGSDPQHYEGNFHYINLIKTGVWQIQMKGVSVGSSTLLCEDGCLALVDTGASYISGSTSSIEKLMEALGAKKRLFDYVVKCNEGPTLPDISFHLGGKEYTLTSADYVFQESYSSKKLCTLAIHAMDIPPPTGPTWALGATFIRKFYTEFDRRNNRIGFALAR
The experiment in a line: Evaluation of inhibitory activity against human renin. value in parentheses indicate no. of determinations.

Assay [2] concerns the target T1, Renin. The experiment in a line: Evaluation of inhibitory activity against human renin.
In assay [3] the target is T1, Renin. The assay is described as follows: Evaluation of inhibitory activity against human renin.

Structures are written as SMILES.

Consider `CCP(=O)(CC)[C@@H](O)[C@H](CC1CCCCC1)NC(=O)[C@H](CC(C)C)NC(=O)[C@H](Cc1ccccc1)NC(=O)C1CCCC1`, for which the IC50 on Renin [1] turned out to be 5.2 µM.

The molecule `CCOP(=O)(OCC)[C@H](O)[C@H](CC1CCCCC1)NC(=O)[C@H](CC(C)C)NC(=O)[C@H](Cc1ccccc1)NC(=O)C1CCCC1` gave a half-maximal inhibitory concentration (IC50) against Renin [2] of 0.038 µM.

Regarding `COP(=O)(OC)[C@H](O)[C@H](CC1CCCCC1)NC(=O)[C@H](Cc1cnc[nH]1)NC(=O)[C@H](Cc1ccccc1)NC(=O)N1CCOCC1`, the 50% inhibitory concentration (IC50) at Renin [3] turned out to be 0.041 µM.

On to `COP(=O)(OC)[C@H](O)[C@H](CC1CCCCC1)NC(=O)[C@H](CC(C)C)NC(=O)[C@H](Cc1ccccc1)NC(=O)N1CCOCC1`, for which the half-maximal inhibitory concentration (IC50) against Renin [3] was 0.0085 µM.

At Renin [2], `COP(=O)(OC)[C@H](O)[C@H](CC1CCCCC1)NC(=O)[C@H](CC(C)C)NC(=O)[C@H](Cc1ccccc1)NC(=O)OC(C)(C)C` had an IC50 of 0.01 µM.

Consider `COP(=O)(O)[C@H](O)[C@H](CC1CCCCC1)NC(=O)[C@H](CC(C)C)NC(=O)[C@H](Cc1ccccc1)NC(=O)C1CCCC1`, for which 27 µM corresponded to half-maximal inhibition against Renin [3] (IC50).

Take `CCP(=O)(OC)C(O)[C@H](CC1CCCCC1)NC(=O)[C@H](CC(C)C)NC(=O)[C@H](Cc1ccccc1)NC(=O)C1CCCC1` (stereo in doubt; 29): on Renin [1], the IC50 worked out at 0.044 µM.

The molecule `CCOP(=O)(OCC)[C@@H](O)[C@H](CC1CCCCC1)NC(=O)[C@H](CC(C)C)NC(=O)[C@H](Cc1ccccc1)NC(=O)OC(C)(C)C` returned an IC50 against Renin [2] of 41 µM.

As for `CCP(=O)(OC)C(O)[C@H](CC1CCCCC1)NC(=O)[C@H](CC(C)C)NC(=O)[C@H](Cc1ccccc1)NC(=O)C1CCCC1` (stereo in doubt; 30), the IC50 at Renin [1] is 2.4 µM.

In the case of `CCP(=O)(CC)[C@H](O)[C@H](CC1CCCCC1)NC(=O)[C@H](CC(C)C)NC(=O)[C@H](Cc1ccccc1)NC(=O)C1CCCC1`, the IC50 at Renin [1] is 0.4 µM.

At Renin [2], `CCOP(=O)(OCC)[C@H](O)[C@H](CC1CCCCC1)NC(=O)[C@H](CC(C)C)NC(=O)[C@H](Cc1ccccc1)NC(=O)OC(C)(C)C` displayed an IC50 of 0.029 µM.

Molecule `COP(=O)(OC)[C@H](O)[C@H](CC1CCCCC1)NC(=O)[C@H](CC(C)C)NC(=O)[C@H](Cc1ccccc1)NC(=O)CCCCCN` came in with an IC50 against Renin [3] of 0.031 µM.

For `CCP(=O)(OC)C(O)[C@H](CC1CCCCC1)NC(=O)[C@H](CC(C)C)NC(=O)[C@H](Cc1ccccc1)NC(=O)C1CCCC1` (stereo in doubt; 28), the concentration for half-maximal inhibition (IC50) on Renin [1] was 0.21 µM.

For `COP(=O)(OC)[C@H](O)[C@H](CC1CCCCC1)NC(=O)[C@H](CC(C)C)NC(=O)[C@H](Cc1ccccc1)NC(=O)C1CCCC1`, the IC50 on Renin [3] turned out to be 0.016 µM.

For the molecule `COP(=O)(OC)[C@H](O)[C@H](CC1CCCCC1)NC(=O)[C@H](Cc1cnc[nH]1)NC(=O)[C@H](Cc1ccccc1)NC(=O)C1CCCC1`, the 50% inhibitory concentration (IC50) against Renin [3] is 0.22 µM.

For `CCOC(=O)[C@H](O)[C@H](CC1CCCCC1)NC(=O)[C@H](CC(C)C)NC(=O)[C@H](Cc1ccccc1)NC(=O)OC(C)(C)C`, the IC50 against Renin [3] is 0.005 µM.

As usually defined, the IC50 is the point on the concentration scale where inhibition reaches its midpoint.
